According to US20050215567A1, “1-[2H-1-benzopyran-2-one-8-yl]-piperazine derivatives for the treatment of pain” (SOLVAY PHARMACEUTICALS B.V., priority 2004, published 2005):
“Also recorded” adds a separate entry of the source.

Assays:
[1] = tested on: hot plate latency; assay: Hot plate test (acute pain model); type: in vivo, mice; conditions: for Latency of animal to remove itself from the hotplate seconds ± STDerr: 30 minutes after administration; for analgesic effect in the hot plate test (in words): i.p., morphine 7.5 mg/kg, compound 1 0.1 mg/kg, sumatriptan 10 mg/kg
Procedure: Hot plate test in mouse or rat according to Eddy and Leimbach (J. Pharmacol. Exp. Ther. 1953, 107: 385-393): Mice or rats are placed onto a hot metal plate maintained at 54° C. for mice or 52° C. for rats surrounded by a Plexiglas cylinder (Height: 13 cm; Diameter: 19 cm). The latency to the first foot-lick is measured (maximum: 30 seconds).
Compound 1 and other compounds were tested on the hotplate 30 minutes after intraperitoneal administration. A description of the method is given above.

[2] = tested on: acetic acid induced writhing; assay: Acetic acid writhing test (acute pain model); type: in vivo, mice; conditions: Mus musculus, po
Procedure: Phenylbenzoquinone and acetic writhing tests in mice follow the methods described by Hendershot et al (J. Pharmacol. Exp. Ther. 1959, 125: 237-240): Mice are injected with phenylbenzoquinone (PBQ) (1.25 mg/kg ip.) or acetic acid (0.5% ip.). This treatment induces a recognizable writhing response in control animals. The number of writhes is counted for 10 minutes beginning 5 minutes after injection of PBQ or acetic acid.

[3] = Sedative effects after oral dosing; type: in vivo; conditions: dosages of up to 100 mg/kg p.o.

| SMILES | Latency of animal to remove itself from the hotplate seconds ± STDerr ([1]; 10 mg/kg i.p.) [s] | analgesic effect in the hot plate test (in words) [1] | analgesic effect in the hot plate test (in words) ([1]; listed as Sumatriptan) | antagonism of the analgesic effect of compound 1 in the hot plate test ([1]; sumatriptan 10 mg/kg i.p. with compound 1 0.1 mg/kg i.p., P-value=0.0001, Wilcoxon test) | Latency of animal to remove itself from the hotplate seconds ± STDerr ([1]; 7.5 mg/kg i.p.) [s] | ED50 [2] [mg/kg] | Latency of animal to remove itself from the hotplate seconds ± STDerr ([1]; 0.1 mg/kg i.p.) [s] | ED50 ([1]; Mus musculus, po, read-out: ED50 hot plate test) [mg/kg] | sedative effects [3] |
| --- | --- | --- | --- | --- | --- | --- | --- | --- | --- |
| CNS(=O)(=O)Cc1ccc2[nH]cc(CCN(C)C)c2c1 [sumatriptan] | 3.9 ± 0.3 | inactive | completely inactive | nearly completely antagonizes; also recorded: nearly completely blocked | – | – | – | – | – |
| CN1CC[C@]23c4c5ccc(O)c4O[C@H]2[C@@H](O)C=C[C@H]3[C@H]1C5 [morphine] | – | nearly doubles the latency | – | – | 7.8 ± 0.3 | – | – | – | – |
| Nc1cc2cccc(N3CCNCC3)c2oc1=O [Compound 1, 3-amino-8-(1-piperazinyl)-2H-1-benzopyran-2-one] | – | – | – | – | – | 1.82 | 8.4 ± 0.5 | 3.2 | devoid of sedative effects |
